1 molecule from patent publication US9457033B2, “Steroid alkaloids and uses thereof as antimicrobial agents against electron transport-deficient microbes and as potentiators for antimicrobial agents against pathogenic bacteria” (priority 2011, dated 2016) can be followed below.

In brackets after ≈: the same amount, converted by molar mass. Read-outs that look alike come from different tables or passages of the source.

Common to all, as to format: cell-based, Staphylococcus aureus
Assay [1] concerns S. aureus MRSA COL. Kind of assay: MIC, microdilution in CAMHB 24 h. To be noted: MRSA COL; for MIC: Staphylococcus aureus.
Assay [2] deals with S. aureus Sa220c. The assay can be described thus: MIC, microdilution in CAMHB 24 h. Conditions: Sa220c; for MIC: Staphylococcus aureus. In general terms: Broth dilution looks for growth in wells or tubes with falling amounts of substance.
In assay [3] the test system is S. aureus N315. Kind of assay: microbe, parasite or virus in culture. Conditions: for MIC: Staphylococcus aureus.
The test system of assay [4] is S. aureus CF1A-L. The assay can be described thus: MIC, microdilution in CAMHB 24 h. To be noted: CF1A-L; for MIC: Staphylococcus aureus, CF1AL.
Assay [5] concerns S. aureus CF9A-L. Kind of assay: MIC, microdilution in CAMHB 24 h. To be noted: CF9A-L; for MIC: Staphylococcus aureus.
Where [6] appears, read: 8 μg/ml of tomatidine, read-out: MIC +TO.
Where [7] appears, read: absence of tomatidine, read-out: MIC −TO.

Regarding `NC[C@H]1O[C@H](O[C@H]2[C@H](O)[C@@H](O[C@H]3O[C@H](CO)[C@@H](O)[C@H](N)[C@H]3O)[C@H](N)C[C@@H]2N)[C@H](O)[C@@H](O)[C@@H]1O` [Kanamycin, kanamycin], the “Fold (−TO/+TO)” value is reported as 8 fold in assay [1] (8 μg/ml of tomatidine); 8 fold in assay [2] (8 μg/ml of tomatidine); 4 fold in assay [3] (N315, 8 μg/ml of tomatidine); 8 fold in assay [4] (8 μg/ml of tomatidine); 1-2 fold in assay [5] (8 μg/ml of tomatidine). The MIC amounted to 0.5 µg/mL (≈ 1.03 µM) in assay [1] (setting [6]); 4 µg/mL (≈ 8.26 µM) in assay [1] (Human (SSTI), read-out: MIC); 4 µg/mL (≈ 8.26 µM) in assay [1] (setting [7]); 0.5 µg/mL (≈ 1.03 µM) in assay [2] (setting [6]); 4 µg/mL (≈ 8.26 µM) in assay [2] (Human (SSTI), MRSA, read-out: MIC); 4 µg/mL (≈ 8.26 µM) in assay [2] (setting [7]). For the same molecule, the MIC was 64 µg/mL (≈ 132 µM) in assay [3] (N315, read-out: MIC +TO); 256 µg/mL (≈ 528 µM) in assay [3] (N315, read-out: MIC −TO); 0.5 µg/mL (≈ 1.03 µM) in assay [4] (setting [6]); 4 µg/mL (≈ 8.26 µM) in assay [4] (Human (CF lungs), read-out: MIC); 4 µg/mL (≈ 8.26 µM) in assay [4] (setting [7]); 128 to 256 µg/mL (≈ 264 to 528 µM) in assay [5] (CF9AL, ant(4′)-Ia, 8 μg/ml of tomatidine, read-out: MIC +TO). In addition, the MIC in assay [5] (CF9AL, ant(4′)-Ia, absence of tomatidine, read-out: MIC −TO) amounted to 256 µg/mL (≈ 528 µM); in assay [5] (Human (CF lungs), MRSA, read-out: MIC), 256 µg/mL (≈ 528 µM).
